Where two headings read alike, the source gives them in different places. Marks after values point to notes of the source that are not given here.
How the values were obtained:
CYP3A4 = CYP3A4 (Homo sapiens, UniProt P08684); settings: read-out: CYP3A4 (IC50); ref Wen et al. 5; cited from earlier work
CYP2C9 = CYP2C9 (Homo sapiens, UniProt P11712); settings: read-out: CYP2C9 (IC50); ref Wen et al. 5; cited from earlier work
[1] = mouse (m), ref Wen et al. 5; cited from earlier work
CYP2C19 = CYP2C19 (Homo sapiens, UniProt P33261); settings: read-out: CYP2C19 (IC50); ref Wen et al. 5; cited from earlier work
[2] = pH 7.4, pION method, determined by Jai Research Foundation; ref Wen et al. 5; cited from earlier work
[3] = rat (r), ref Wen et al. 5; cited from earlier work
hERG = hERG (Homo sapiens, UniProt Q12809); settings: read-out: hERG, IC50; fluorescent dye binding method; ref Wen et al. 5; cited from earlier work
[4] = ref Wen et al. 5; cited from earlier work
[5] = ref Wen et al. 5; cited from earlier work; remark: listed apart in the source
CYP2D6 = CYP2D6 (Homo sapiens, UniProt P10635); settings: read-out: CYP2D6 (IC50); ref Wen et al. 5; cited from earlier work
hP2Y14R = target: T1, hP2Y14R (Homo sapiens, UniProt Q15391); experiment: cell-based
T1 sequence (Q15391 1-338): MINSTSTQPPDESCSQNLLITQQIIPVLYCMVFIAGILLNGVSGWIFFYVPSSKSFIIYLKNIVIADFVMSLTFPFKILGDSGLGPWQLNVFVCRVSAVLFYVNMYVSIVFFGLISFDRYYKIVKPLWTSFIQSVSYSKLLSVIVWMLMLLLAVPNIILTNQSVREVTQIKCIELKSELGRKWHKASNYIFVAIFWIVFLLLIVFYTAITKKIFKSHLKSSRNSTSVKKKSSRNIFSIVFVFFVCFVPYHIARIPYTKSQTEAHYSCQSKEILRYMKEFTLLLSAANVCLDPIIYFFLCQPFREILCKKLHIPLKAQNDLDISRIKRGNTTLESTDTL

[6] = rat, 3 mg/kg, i.p.; previous data; cited from earlier work
CYP1A2 = target: T2, CYP1A2 (Homo sapiens, UniProt P05177); settings: read-out: CYP1A2 (IC50); ref Wen et al. 5; cited from earlier work
T2 sequence (P05177 1-516): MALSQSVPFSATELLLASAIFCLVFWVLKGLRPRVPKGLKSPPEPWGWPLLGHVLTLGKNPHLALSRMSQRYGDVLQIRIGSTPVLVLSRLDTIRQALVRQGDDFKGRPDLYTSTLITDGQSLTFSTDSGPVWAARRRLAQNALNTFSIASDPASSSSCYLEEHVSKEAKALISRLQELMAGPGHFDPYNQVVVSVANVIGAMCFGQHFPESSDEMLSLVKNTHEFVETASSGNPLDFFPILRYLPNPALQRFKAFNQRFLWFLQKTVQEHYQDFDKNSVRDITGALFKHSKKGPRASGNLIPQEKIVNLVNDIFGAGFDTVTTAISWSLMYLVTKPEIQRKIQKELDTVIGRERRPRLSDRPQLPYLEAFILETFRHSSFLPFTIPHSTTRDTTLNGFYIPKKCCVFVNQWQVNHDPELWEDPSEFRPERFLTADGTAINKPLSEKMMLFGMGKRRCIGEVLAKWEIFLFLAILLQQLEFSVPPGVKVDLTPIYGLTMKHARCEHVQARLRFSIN

Sequence of hERG (Q12809 whole entry): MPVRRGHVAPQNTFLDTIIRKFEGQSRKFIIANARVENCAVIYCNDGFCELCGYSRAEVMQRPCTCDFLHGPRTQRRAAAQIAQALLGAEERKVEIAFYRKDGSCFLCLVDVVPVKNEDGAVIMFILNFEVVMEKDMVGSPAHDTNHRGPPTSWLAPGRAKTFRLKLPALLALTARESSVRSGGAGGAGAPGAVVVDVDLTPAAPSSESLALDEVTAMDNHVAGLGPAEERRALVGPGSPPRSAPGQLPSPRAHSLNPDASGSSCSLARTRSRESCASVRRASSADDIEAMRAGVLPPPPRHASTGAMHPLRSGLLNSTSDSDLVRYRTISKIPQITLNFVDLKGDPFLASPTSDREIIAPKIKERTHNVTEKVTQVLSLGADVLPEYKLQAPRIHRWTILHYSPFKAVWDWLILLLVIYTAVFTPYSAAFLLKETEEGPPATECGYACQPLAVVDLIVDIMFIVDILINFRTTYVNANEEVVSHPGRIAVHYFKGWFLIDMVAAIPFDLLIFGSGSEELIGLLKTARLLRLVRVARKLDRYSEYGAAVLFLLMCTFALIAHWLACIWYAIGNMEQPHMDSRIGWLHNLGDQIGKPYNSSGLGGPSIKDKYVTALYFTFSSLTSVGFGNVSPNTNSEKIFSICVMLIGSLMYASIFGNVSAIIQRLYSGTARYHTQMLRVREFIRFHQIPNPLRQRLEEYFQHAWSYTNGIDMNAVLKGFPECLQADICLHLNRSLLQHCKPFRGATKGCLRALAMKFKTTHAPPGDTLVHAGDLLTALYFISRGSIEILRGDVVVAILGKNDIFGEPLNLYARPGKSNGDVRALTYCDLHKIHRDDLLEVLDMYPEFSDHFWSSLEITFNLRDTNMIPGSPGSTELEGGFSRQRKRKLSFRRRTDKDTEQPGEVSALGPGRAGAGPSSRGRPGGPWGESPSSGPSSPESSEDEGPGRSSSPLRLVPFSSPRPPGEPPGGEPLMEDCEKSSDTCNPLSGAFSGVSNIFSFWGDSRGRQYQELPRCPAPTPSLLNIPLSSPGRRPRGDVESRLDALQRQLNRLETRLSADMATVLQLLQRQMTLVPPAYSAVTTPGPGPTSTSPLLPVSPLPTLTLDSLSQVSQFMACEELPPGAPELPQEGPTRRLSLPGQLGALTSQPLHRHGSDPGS
Sequence of CYP2C9 (P11712 whole entry): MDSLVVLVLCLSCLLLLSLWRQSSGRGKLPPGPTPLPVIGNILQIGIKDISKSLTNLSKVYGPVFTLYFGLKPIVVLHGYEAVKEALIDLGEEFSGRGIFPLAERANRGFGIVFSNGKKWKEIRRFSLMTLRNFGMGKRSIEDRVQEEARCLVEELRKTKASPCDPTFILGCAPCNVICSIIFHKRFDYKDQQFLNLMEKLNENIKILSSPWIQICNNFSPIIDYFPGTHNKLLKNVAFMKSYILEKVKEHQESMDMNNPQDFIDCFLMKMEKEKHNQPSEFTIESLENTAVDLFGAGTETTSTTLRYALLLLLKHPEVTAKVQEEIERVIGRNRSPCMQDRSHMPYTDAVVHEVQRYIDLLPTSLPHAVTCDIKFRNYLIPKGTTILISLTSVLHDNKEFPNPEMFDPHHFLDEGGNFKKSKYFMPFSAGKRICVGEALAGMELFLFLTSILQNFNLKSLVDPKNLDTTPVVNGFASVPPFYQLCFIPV
Sequence of CYP2C19 (P33261 whole entry): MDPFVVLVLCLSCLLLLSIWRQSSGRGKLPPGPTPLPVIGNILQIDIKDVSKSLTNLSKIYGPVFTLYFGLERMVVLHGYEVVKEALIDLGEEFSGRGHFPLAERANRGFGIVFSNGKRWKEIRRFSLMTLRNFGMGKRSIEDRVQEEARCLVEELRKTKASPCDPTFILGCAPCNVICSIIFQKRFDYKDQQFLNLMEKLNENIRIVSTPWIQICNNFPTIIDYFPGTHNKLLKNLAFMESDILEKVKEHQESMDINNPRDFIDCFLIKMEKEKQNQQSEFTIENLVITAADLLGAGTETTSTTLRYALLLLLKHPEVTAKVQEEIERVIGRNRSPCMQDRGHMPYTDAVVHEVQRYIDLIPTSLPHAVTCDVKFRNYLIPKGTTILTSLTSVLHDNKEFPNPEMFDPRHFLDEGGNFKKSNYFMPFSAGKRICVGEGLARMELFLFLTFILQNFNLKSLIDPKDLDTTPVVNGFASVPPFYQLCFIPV
Sequence of CYP3A4 (P08684 whole entry): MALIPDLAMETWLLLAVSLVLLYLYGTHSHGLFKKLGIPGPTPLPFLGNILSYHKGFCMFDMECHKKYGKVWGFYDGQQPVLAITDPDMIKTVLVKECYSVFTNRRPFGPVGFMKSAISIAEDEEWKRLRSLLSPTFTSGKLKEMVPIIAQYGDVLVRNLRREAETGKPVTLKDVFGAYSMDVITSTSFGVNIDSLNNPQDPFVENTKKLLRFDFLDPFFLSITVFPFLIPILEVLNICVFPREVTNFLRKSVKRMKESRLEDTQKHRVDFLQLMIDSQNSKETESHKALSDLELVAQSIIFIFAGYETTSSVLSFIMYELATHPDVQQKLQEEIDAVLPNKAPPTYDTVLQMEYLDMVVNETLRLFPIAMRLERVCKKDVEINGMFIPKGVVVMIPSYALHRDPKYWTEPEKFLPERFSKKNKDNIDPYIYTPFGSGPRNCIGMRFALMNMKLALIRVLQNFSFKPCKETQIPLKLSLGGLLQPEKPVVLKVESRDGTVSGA
Sequence of CYP2D6 (P10635 whole entry): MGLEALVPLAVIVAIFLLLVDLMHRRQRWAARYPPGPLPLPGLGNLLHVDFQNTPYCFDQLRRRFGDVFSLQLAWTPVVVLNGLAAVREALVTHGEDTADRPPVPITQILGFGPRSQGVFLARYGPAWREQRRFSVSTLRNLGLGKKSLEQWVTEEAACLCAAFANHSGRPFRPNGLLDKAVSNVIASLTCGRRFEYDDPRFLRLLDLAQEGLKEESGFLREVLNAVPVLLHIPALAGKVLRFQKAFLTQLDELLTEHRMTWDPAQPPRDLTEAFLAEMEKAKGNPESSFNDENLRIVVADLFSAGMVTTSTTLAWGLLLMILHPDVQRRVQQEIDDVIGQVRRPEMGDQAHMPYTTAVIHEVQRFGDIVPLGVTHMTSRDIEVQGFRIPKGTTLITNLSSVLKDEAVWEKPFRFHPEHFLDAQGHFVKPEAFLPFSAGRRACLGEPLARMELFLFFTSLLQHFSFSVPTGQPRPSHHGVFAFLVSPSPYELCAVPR

For `O=C(O)c1cc(-c2ccc([C@H]3C[C@H]4C[C@@H]3CN4)cc2)c2ccc(-c3ccc(C(F)(F)F)cc3)cc2c1` [2b, 4-(4-((1S,4S,5S)-2-Azabicyclo[2.2.1]heptan-5-yl)phenyl)-7-(4-(trifluoromethyl)phenyl)-2-naphthoic Acid], the IC50 (CYP3A4) is given as > 30 µM, the IC50 (CYP2C9) is given as > 30 µM and the “plasma stability (% remaining at 120 min)” value [1] is given as 100%. For the same compound, the IC50 (CYP2C19) was > 30 µM, the “solubility, (μg/mL)” value [2] was 1.90 (pH 7.4)^d μg/mL and the “plasma stability (% remaining at 120 min)” value [3] was 82.8%. For the same compound, the IC50 (hERG) was > 30 µM, the “simulated gastric fluid (% remaining at 120 min)” value [4] was 100^a % and the “simulated intestinal fluid (% remaining at 120 min)” value [5] was 99.1%. For the same compound, the IC50 (CYP2D6) was > 30 µM, the Ki (hP2Y14R) was 0.00181 µM and the bioavailability [6] was 43 %F. The IC50 (CYP1A2) was > 30 µM.

From paper PMC10407959 (Journal of medicinal chemistry, 2023)
